# Reference: article PMC4474874, “Effect of JAK Inhibitors on Release of CXCL9, CXCL10 and CXCL11 from Human Airway Epithelial Cells” (PLoS ONE, 2015)
# Tests used:
# [1] = test system: STAT-1; assay: STAT-1 phosphorylation in BEAS-2B cells (western blot); format: cell-based, human; conditions: for IC50: n = 4
# Protocol: (§1) Enhanced chemiluminescence (ECL) reagent and Hybond-ECL nitrocellulose were obtained from GE Healthcare (Little Chalfont, UK). Bis-Tris SDS-PAGE (4–12%) gels and buffers were purchased from Invitrogen Ltd (Paisley, Scotland, UK). Antibodies against phosphorylated and total STAT-1 were purchased from New England Biolabs (Hitchin, UK). Epithelial cells were treated as indicated in six-well plates and lysed in 10 mM Tris-HCl buffer (pH 7.5) containing 150 mM NaCl, 2 mM EDTA, 1 mM sodium orthovanadate, 1% (v/v) Triton X-100, 1 mM phenylmethylsulfonyl fluoride, 10 μg/ml leupeptin, and 10 μg/ml aprotinin) for 30 min on ice. The lysates were then centrifuged at 12,000g for 15 min and protein concentration determined using the BCA protein assay (BioRad, Hemel Hempstead, UK). The proteins within the lysates (20 μg) were resolved with 4–12% Bis-Tris gels and transferred onto nitrocellulose membranes. The membranes were then blocked with 5% (w/v) non-fat milk in TBS containing 0.1% (v/v) Tween 20 for 1 h at room temperature and then incubated with antibodies specific for pSTAT-1 overnight at 4°C. The primary antibody was detected with peroxidase-conjugated secondary antibodies and labelled proteins were detected by ECL.
# Having ascertained that JAK inhibitors could suppress the glucocorticosteroid-insensitive release of CXCL9, CXCL10 and CXCL11 from airway epithelial cells, it was important to confirm that this was via inhibition of the JAK-STAT pathway and not an off-target effect of these agents. […] BEAS-2B cells were stimulated with either IFNγ or IFNγ in combination with TNFα and the phosphorylation of STAT-1 was measured by western blotting as reported previously (Fig 4). […] There was no activation of STAT-5A or STAT-5B in this system (data not shown).
# Cells were harvested and western blots performed for phosphorylated STAT-1 and total STAT-1 and quantified by densitometry. Data are representative of n = 4 independent experiments (panels a and c) and presented as mean±SEM, n = 4 (panels b and d).
# [2] = test system: STAT-1; assay: STAT-1 phosphorylation in human primary airway epithelial cells (western blot); format: cell-based; conditions: 1μM inhibitor 1h, IFNγ and IFNγ + TNFα 10 min
# Protocol: as §1
# Cells were harvested and western blots performed for phosphorylated STAT-1 and total STAT-1 and quantified by densitometry. […]
# [3] = test system: BEAS-2B and human primary airway epithelial cells; assay: Cell viability, MTT assay; format: cell-based; conditions: for cell viability compared to untreated cells (MTT): at 10^-6M and at all concentrations below this
# Protocol: Cell viability was determined colorimetrically by measuring the reduction of 3-[4,5-dimethylthiazol-2-yl]-2,5-diphenyltetrazolium bromide, MTT, to formazan by mitochondrial dehydrogenases, as described previously.
# In order to determine whether any of the inhibitory effects of the JAK inhibitors could be attributed to cell death, MTT assays were performed at the end of every experiment. […] In order to address this issue, the levels of IL-6 released from cells stimulated with IFNγ + TNFα were measured.
# [4] = test system: BEAS-2B cells; assay: Release of CXCL9, CXCL10 and CXCL11 from BEAS-2B cells (ELISA), inhibitors added concomitantly with stimulus; format: cell-based, human
# Protocol: (§2) Cell-free supernatants were removed 20h post-stimulation and assayed for CXCL9, CXCL10 and CXCL11 using Duoset ELISA kits (R & D Systems Europe, Abingdon, UK) according to the manufacturer’s instructions. The detection limits of these assays are 62pg/ml, 31pg/ml, and 7.8 pg/ml respectively.
# It was possible that concomitant addition of stimulus and JAK inhibitors may elicit a different inhibitory profile, therefore to address this, experiments were performed. […] Experiments were then performed to determine the effects of both JAK inhibitors in human primary airway epithelial cells in order to determine whether their ability to suppress CXCR3 chemokine release from BEAS-2B cells was reflective of their efficacy in primary cells.
# Media was harvested and the concentrations of CXCL9 (panels a and d), CXCL10 (panels b and e) and CXCL11 (panels c and f) were measured by ELISA. Data are presented as mean±SEM, n = 7–8. (EPS) Click here for additional data file. […]
# After this time, media was harvested and the concentrations of CXCR3 chemokines measured by ELISA. Data are presented as mean±SEM, n=4
# [5] = test system: BEAS-2B cells; assay: Release of CXCL9, CXCL10 and CXCL11 from BEAS-2B cells (ELISA), inhibitors added 1h before stimulus; format: cell-based, human; conditions: for IC50: BEAS-2B, pre-treated 1h
# Protocol: BEAS-2B cells (catalogue number CRL-9609) were purchased directly from American Type Culture Collection (Rockville, MD). Keratinocyte serum-free medium (K-SFM), bovine pituitary extract (BPE), and recombinant human epidermal growth factor (EGF) were purchased from Invitrogen (Paisley, UK). BEAS-2B cells were cultured in K-SFM containing 50 μg/ml BPE and 5 ng/ml EGF at 37°C in a humidified atmosphere comprising 5% (v/v) CO2 in air. Cells were cultured as monolayers in growth factor-free media for 24 h prior to stimulation. Human primary airway epithelial cells were cultured as monolayers from bronchial brushings from both male and female subjects (Table 1) and cultured in LHC-9 media (Invitrogen, Paisley, UK) in collagen (1% w/v) coated flasks. Samples were obtained from non-smokers, smokers and patients with COPD. […] The subjects were matched for age and smokers and COPD patients for smoking history (Table 1). All subjects gave informed written consent and the study was approved by the NRES London-Chelsea Research Ethics committee, study number 09/H0801/85.
# as §2
# Data are presented as mean ± SEM of ‘n’ independent determinations. Concentration-response curves were analysed by least-squares, non-linear iterative regression with the ‘Graphpad Prism’ curve fitting program (GraphPad software, San Diego, USA) and IC50 values were subsequently interpolated from curves of best-fit. Statistical differences were determined using the Kruskal–Wallis test followed by Dunn's multiple comparison test or a Wilcoxon signed rank test as appropriate. Values of P<0.05 were considered significant.
# Media was harvested and the concentrations of CXCL9 (panels a and d), CXCL10 (panels b and e) and CXCL11 (panels c and f) were measured by ELISA. Data are presented as mean±SEM, n = 7–8.
smiles,measurement,setting,value
C[C@@H]1CCN(C(=O)N2CCCC2)C[C@@H]1N(C)c1ncnc2[nH]ccc12 [PF956980],IC50,[1]; IFNγ + TNFα stimulation,840 ± 210 nM
same,IC50,[1]; IFNγ stimulation,940 ± 160 nM
same,effect on phosphorylation of STAT-1,[2],suppressed
same,effect on cell viability (MTT),[3]; any of the concentrations used in this study,no effect on cell viability
same,cell viability compared to untreated cells (MTT),[3],no alterations in cell viability
same,IC50,"[4]; inhibitor concomitant with IFNγ (10 ng/ml) 20h, read-out: IC50, release of CXCL9",300 ± 100 nM
same,IC50,"[4]; inhibitor concomitant with IFNγ (10 ng/ml) 20h, read-out: IC50, release of CXCL10",1100 ± 400 nM
same,IC50,"[4]; inhibitor concomitant with IFNγ (10 ng/ml) 20h, read-out: IC50, release of CXCL11",1100 ± 300 nM
same,IC50,"[4]; inhibitor concomitant with IFNγ+TNFα (10 ng/ml) 20h, read-out: IC50, release of CXCL9",1000 ± 300 nM
same,IC50,"[4]; inhibitor concomitant with IFNγ+TNFα (10 ng/ml) 20h, read-out: IC50, release of CXCL10",4000 ± 1300 nM
same,IC50,"[5]; IFNγ (10ng/ml) 20h, read-out: IC50, release of CXCL9",400 ± 100 nM
same,IC50,"[5]; IFNγ (10ng/ml) 20h, read-out: IC50, release of CXCL10",600 ± 300 nM
same,IC50,"[5]; IFNγ (10ng/ml) 20h, read-out: IC50, release of CXCL11",500 ± 100 nM
same,IC50,"[5]; IFNγ+TNFα (10ng/ml) 20h, read-out: IC50, release of CXCL9",600 ± 100 nM
same,IC50,"[5]; IFNγ+TNFα (10ng/ml) 20h, read-out: IC50, release of CXCL10",2200 ± 300 nM
same,"effect on IFNγ-stimulated release of CXCL9, CXCL10 and CXCL11","[5]; present study, IFNγ-stimulated",completely attenuated
"CCc1cc(O)ccc1-c1ccc2c(-c3nc4ccccc4[nH]3)n[nH]c2c1 [PF1367550, 4-(3-(1H-benzo[d]imidazol-2-yl)-1H-indazol-6-yl)-3-ethylphenol]",fold more potent at suppressing STAT-1 phosphorylation compared with PF956980,[1],~ 40 fold
same,IC50,"[1]; Homo sapiens, IFNγ + TNFα stimulation",32 ± 13 nM
same,IC50,"[1]; Homo sapiens, IFNγ stimulation",24 ± 6 nM
same,effect on phosphorylation of STAT-1,[2],suppressed
same,cell viability compared to untreated cells (MTT),[3],no alterations in cell viability
same,effect on cell viability (MTT),[3]; within 10^3 of the IC50 for this compound,no effect on cell viability
same,IC50,"[4]; Homo sapiens, 20 h, inhibitor concomitant with IFNγ (10 ng/ml) 20h, read-out: IC50, release of CXCL9",10.3 ± 2.1 nM
same,IC50,"[4]; Homo sapiens, 20 h, inhibitor concomitant with IFNγ (10 ng/ml) 20h, read-out: IC50, release of CXCL10",16.6 ± 2.7 nM
same,IC50,"[4]; Homo sapiens, 20 h, inhibitor concomitant with IFNγ (10 ng/ml) 20h, read-out: IC50, release of CXCL11",16 ± 4.1 nM
same,IC50,"[4]; Homo sapiens, 20 h, inhibitor concomitant with IFNγ+TNFα (10 ng/ml) 20h, read-out: IC50, release of CXCL9",31.6 ± 13.4 nM
same,IC50,"[4]; Homo sapiens, 20 h, inhibitor concomitant with IFNγ+TNFα (10 ng/ml) 20h, read-out: IC50, release of CXCL10",146 ± 32.6 nM
same,IC50,"[4]; Homo sapiens, 20 h, inhibitor concomitant with IFNγ+TNFα (10 ng/ml) 20h, read-out: IC50, release of CXCL11",32 ± 8.7 nM
same,"fold more potent than PF956980, CXCR3 chemokine release","[5]; BEAS-2B cells, IFNγ and IFNγ+TNFα",~ 50 fold
same,IC50,"[5]; Homo sapiens, IFNγ (10ng/ml) 20h, read-out: IC50, release of CXCL9",3.6 ± 1.4 nM
same,IC50,"[5]; Homo sapiens, IFNγ (10ng/ml) 20h, read-out: IC50, release of CXCL10",6.1 ± 2 nM
same,IC50,"[5]; Homo sapiens, IFNγ (10ng/ml) 20h, read-out: IC50, release of CXCL11",11.5 ± 2 nM
same,IC50,"[5]; Homo sapiens, IFNγ+TNFα (10ng/ml) 20h, read-out: IC50, release of CXCL9",13.3 ± 2 nM
same,IC50,"[5]; Homo sapiens, IFNγ+TNFα (10ng/ml) 20h, read-out: IC50, release of CXCL10",50.3 ± 8.5 nM
same,IC50,"[5]; Homo sapiens, IFNγ+TNFα (10ng/ml) 20h, read-out: IC50, release of CXCL11",13.9 ± 2.6 nM
